Results published in PubChem BioAssay (NCI).
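Test compounds were applied to cells in 96-well plates for 48 hours at 5 doses. TGI: total growth inhibition.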

How the values were obtained:
Assay in all cases: NCI tumour cell line growth inhibition, 48 h
786-0 renal = test system: 786-0 renal
A498 renal = test system: A498 renal
A549 NSCLC = test system: A549 NSCLC
ACHN renal = test system: ACHN renal
CAKI-1 renal = test system: CAKI-1 renal
CCRF-CEM leukemia = test system: CCRF-CEM leukemia
COLO 205 colon = test system: COLO 205 colon
DLD-1 colon = test system: DLD-1 colon
DMS 114 small cell lung = test system: DMS 114 small cell lung
DMS 273 small cell lung = test system: DMS 273 small cell lung
EKVX NSCLC = test system: EKVX NSCLC
HCC-2998 colon = test system: HCC-2998 colon
HCT-116 colon = test system: HCT-116 colon
HCT-15 colon = test system: HCT-15 colon
HL-60(TB) leukemia = test system: HL-60(TB) leukemia
HOP-18 NSCLC = test system: HOP-18 NSCLC
HOP-62 NSCLC = test system: HOP-62 NSCLC
HOP-92 NSCLC = test system: HOP-92 NSCLC
HT29 colon = test system: HT29 colon
IGROV1 ovarian = test system: IGROV1 ovarian
K-562 leukemia = test system: K-562 leukemia
KM12 colon = test system: KM12 colon
KM20L2 colon = test system: KM20L2 colon
LOX IMVI melanoma = test system: LOX IMVI melanoma
LXFL 529 NSCLC = test system: LXFL 529 NSCLC
M14 melanoma = test system: M14 melanoma
M19-MEL melanoma = test system: M19-MEL melanoma
MALME-3M melanoma = test system: MALME-3M melanoma
MOLT-4 leukemia = test system: MOLT-4 leukemia
NCI-H226 lung = test system: NCI-H226 lung
NCI-H23 lung = test system: NCI-H23 lung
NCI-H460 lung = test system: NCI-H460 lung
NCI-H522 lung = test system: NCI-H522 lung
OVCAR-3 ovarian = test system: OVCAR-3 ovarian
OVCAR-4 ovarian = test system: OVCAR-4 ovarian
OVCAR-5 ovarian = test system: OVCAR-5 ovarian
OVCAR-8 ovarian = test system: OVCAR-8 ovarian
RPMI-8226 leukemia = test system: RPMI-8226 leukemia
RXF 393 renal = test system: RXF 393 renal
SF-268 CNS = test system: SF-268 CNS
SF-295 CNS = test system: SF-295 CNS
SF-539 CNS = test system: SF-539 CNS
SK-MEL-2 melanoma = test system: SK-MEL-2 melanoma
SK-MEL-28 melanoma = test system: SK-MEL-28 melanoma
SK-MEL-5 melanoma = test system: SK-MEL-5 melanoma
SK-OV-3 ovarian = test system: SK-OV-3 ovarian
SN12C renal = test system: SN12C renal
SNB-19 CNS = test system: SNB-19 CNS
SNB-75 CNS = test system: SNB-75 CNS
SNB-78 CNS = test system: SNB-78 CNS
SR leukemia = test system: SR leukemia
SW-620 colon = test system: SW-620 colon
TK-10 renal = test system: TK-10 renal
U251 CNS = test system: U251 CNS
UACC-257 melanoma = test system: UACC-257 melanoma
UACC-62 melanoma = test system: UACC-62 melanoma
UO-31 renal = test system: UO-31 renal
XF 498 CNS = test system: XF 498 CNS

## Cc1ccc(NC(=O)/C(=N/NC(=O)CC#N)C2C(=O)N(c3ccccc3)N=C2N)cc1C (stereo not drawn)
786-0 renal
  TGI: > 100 µM
A498 renal
  TGI: > 100 µM
A549 NSCLC
  TGI: > 100 µM
ACHN renal
  TGI: > 100 µM
CAKI-1 renal
  TGI: > 100 µM
CCRF-CEM leukemia
  TGI: > 100 µM
COLO 205 colon
  TGI: > 100 µM
DLD-1 colon
  TGI: > 100 µM
DMS 114 small cell lung
  TGI: > 100 µM
DMS 273 small cell lung
  TGI: > 100 µM
EKVX NSCLC
  TGI: > 100 µM
HCC-2998 colon
  TGI: > 100 µM
HCT-116 colon
  TGI: > 100 µM
HCT-15 colon
  TGI: > 100 µM
HL-60(TB) leukemia
  TGI: > 100 µM
HOP-18 NSCLC
  TGI: > 100 µM
HOP-62 NSCLC
  TGI: > 100 µM
HOP-92 NSCLC
  TGI: > 100 µM
HT29 colon
  TGI: > 100 µM
IGROV1 ovarian
  TGI: > 100 µM
K-562 leukemia
  TGI: > 100 µM
KM12 colon
  TGI: > 100 µM
KM20L2 colon
  TGI: > 100 µM
LOX IMVI melanoma
  TGI: > 100 µM
LXFL 529 NSCLC
  TGI: > 100 µM
M14 melanoma
  TGI: > 100 µM
M19-MEL melanoma
  TGI: > 100 µM
MALME-3M melanoma
  TGI: > 100 µM
MOLT-4 leukemia
  TGI: > 100 µM
NCI-H226 lung
  TGI: > 100 µM
NCI-H23 lung
  TGI: > 100 µM
NCI-H460 lung
  TGI: > 100 µM
NCI-H522 lung
  TGI: > 100 µM
OVCAR-3 ovarian
  TGI: > 100 µM
OVCAR-4 ovarian
  TGI: > 100 µM
OVCAR-5 ovarian
  TGI: > 100 µM
OVCAR-8 ovarian
  TGI: > 100 µM
RPMI-8226 leukemia
  TGI: > 100 µM
RXF 393 renal
  TGI: > 100 µM
SF-268 CNS
  TGI: > 100 µM
SF-295 CNS
  TGI: > 100 µM
SF-539 CNS
  TGI: > 100 µM
SK-MEL-2 melanoma
  TGI: > 100 µM
SK-MEL-28 melanoma
  TGI: > 100 µM
SK-MEL-5 melanoma
  TGI: > 100 µM
SK-OV-3 ovarian
  TGI: > 100 µM
SN12C renal
  TGI: > 100 µM
SNB-19 CNS
  TGI: > 100 µM
SNB-75 CNS
  TGI: > 100 µM
SNB-78 CNS
  TGI: > 100 µM
SR leukemia
  TGI: > 100 µM
SW-620 colon
  TGI: > 100 µM
TK-10 renal
  TGI: > 100 µM
U251 CNS
  TGI: > 100 µM
UACC-257 melanoma
  TGI: > 100 µM
UACC-62 melanoma
  TGI: > 100 µM
UO-31 renal
  TGI: > 100 µM
XF 498 CNS
  TGI: > 100 µM

## NC(=S)N/N=C1\C(=O)N(c2cccc([N+](=O)[O-])c2)C(=O)C1C(=O)Nc1cccc([N+](=O)[O-])c1 (stereo not drawn)
786-0 renal
  TGI: > 100 µM
A498 renal
  TGI: > 100 µM
A549 NSCLC
  TGI: > 100 µM
ACHN renal
  TGI: > 100 µM
CAKI-1 renal
  TGI: > 100 µM
CCRF-CEM leukemia
  TGI: > 100 µM
COLO 205 colon
  TGI: > 100 µM
DLD-1 colon
  TGI: > 100 µM
DMS 114 small cell lung
  TGI: > 100 µM
DMS 273 small cell lung
  TGI: > 100 µM
EKVX NSCLC
  TGI: > 100 µM
HCC-2998 colon
  TGI: > 100 µM
HCT-116 colon
  TGI: > 100 µM
HCT-15 colon
  TGI: > 100 µM
HL-60(TB) leukemia
  TGI: > 100 µM
HOP-18 NSCLC
  TGI: > 100 µM
HOP-62 NSCLC
  TGI: > 100 µM
HOP-92 NSCLC
  TGI: > 100 µM
HT29 colon
  TGI: > 100 µM
IGROV1 ovarian
  TGI: > 100 µM
K-562 leukemia
  TGI: > 100 µM
KM20L2 colon
  TGI: > 100 µM
LOX IMVI melanoma
  TGI: > 100 µM
LXFL 529 NSCLC
  TGI: > 100 µM
M14 melanoma
  TGI: > 100 µM
M19-MEL melanoma
  TGI: > 100 µM
MALME-3M melanoma
  TGI: > 100 µM
MOLT-4 leukemia
  TGI: > 100 µM
NCI-H226 lung
  TGI: > 100 µM
NCI-H23 lung
  TGI: > 100 µM
NCI-H522 lung
  TGI: > 100 µM
OVCAR-3 ovarian
  TGI: > 100 µM
OVCAR-4 ovarian
  TGI: > 100 µM
OVCAR-5 ovarian
  TGI: > 100 µM
OVCAR-8 ovarian
  TGI: > 100 µM
RPMI-8226 leukemia
  TGI: > 100 µM
RXF 393 renal
  TGI: > 100 µM
SF-268 CNS
  TGI: > 100 µM
SF-295 CNS
  TGI: > 100 µM
SF-539 CNS
  TGI: > 100 µM
SK-MEL-2 melanoma
  TGI: > 100 µM
SK-MEL-28 melanoma
  TGI: > 100 µM
SK-MEL-5 melanoma
  TGI: > 100 µM
SK-OV-3 ovarian
  TGI: > 100 µM
SN12C renal
  TGI: > 100 µM
SNB-19 CNS
  TGI: > 100 µM
SNB-75 CNS
  TGI: > 100 µM
SNB-78 CNS
  TGI: > 100 µM
SW-620 colon
  TGI: > 100 µM
TK-10 renal
  TGI: > 100 µM
U251 CNS
  TGI: > 100 µM
UACC-257 melanoma
  TGI: > 100 µM
UACC-62 melanoma
  TGI: > 100 µM
UO-31 renal
  TGI: > 100 µM

## CC1=C(N(C)C)C(=O)c2nc3n(c2C1=O)CCC3OC(N)=O (stereo not drawn)
786-0 renal
  TGI: 31.6 µM
A498 renal
  TGI: 26.6 µM
A549 NSCLC
  TGI: 35.1 µM
ACHN renal
  TGI: 30.4 µM
CAKI-1 renal
  TGI: 33.1 µM
CCRF-CEM leukemia
  TGI: 42.8 µM
COLO 205 colon
  TGI: 33.1 µM
DLD-1 colon
  TGI: 29.9 µM
DMS 114 small cell lung
  TGI: 30.6 µM
DMS 273 small cell lung
  TGI: 29.3 µM
EKVX NSCLC
  TGI: 36 µM
HCC-2998 colon
  TGI: 34.7 µM
HCT-116 colon
  TGI: 28.8 µM
HCT-15 colon
  TGI: 28.9 µM
HL-60(TB) leukemia
  TGI: 31.6 µM
HOP-18 NSCLC
  TGI: 32 µM
HOP-62 NSCLC
  TGI: 31.6 µM
HOP-92 NSCLC
  TGI: 28.2 µM
HT29 colon
  TGI: 35.6 µM
IGROV1 ovarian
  TGI: 30.6 µM
K-562 leukemia
  TGI: 49.8 µM
KM12 colon
  TGI: 31.5 µM
KM20L2 colon
  TGI: 38.6 µM
LOX IMVI melanoma
  TGI: 25.7 µM
M14 melanoma
  TGI: 27.4 µM
M19-MEL melanoma
  TGI: 3.12 µM
MALME-3M melanoma
  TGI: 23.3 µM
MOLT-4 leukemia
  TGI: > 100 µM
NCI-H226 lung
  TGI: 33.7 µM
NCI-H23 lung
  TGI: 28.5 µM
NCI-H460 lung
  TGI: 30.4 µM
NCI-H522 lung
  TGI: 28.8 µM
OVCAR-3 ovarian
  TGI: 30.6 µM
OVCAR-4 ovarian
  TGI: 34.7 µM
OVCAR-5 ovarian
  TGI: 34 µM
OVCAR-8 ovarian
  TGI: 34.3 µM
RPMI-8226 leukemia
  TGI: > 100 µM
SF-268 CNS
  TGI: 34.6 µM
SF-295 CNS
  TGI: 28.5 µM
SF-539 CNS
  TGI: 31.8 µM
SK-MEL-2 melanoma
  TGI: 29.8 µM
SK-MEL-28 melanoma
  TGI: 34.4 µM
SK-MEL-5 melanoma
  TGI: 23.7 µM
SK-OV-3 ovarian
  TGI: 29.5 µM
SN12C renal
  TGI: 28.8 µM
SNB-19 CNS
  TGI: 31.4 µM
SNB-75 CNS
  TGI: 42.5 µM
SNB-78 CNS
  TGI: 40.9 µM
SR leukemia
  TGI: > 100 µM
SW-620 colon
  TGI: 33.6 µM
TK-10 renal
  TGI: 32.3 µM
U251 CNS
  TGI: 49.9 µM
UACC-257 melanoma
  TGI: 27.6 µM
UACC-62 melanoma
  TGI: 18 µM
UO-31 renal
  TGI: 31.1 µM
XF 498 CNS
  TGI: 38.8 µM
